The values that follow come from patent US9796742B2, “Kinase inhibitors” (Respivert Limited, priority 2012, dated 2017).

SMILES strings stand for the structures. Read-outs that look alike come from different tables or passages of the source.

In one assay the target is GSK3α (Homo sapiens (Human), UniProt P49840). The assay can be described thus: GSK 3α enzyme inhibition (FRET, Z-LYTE; Method 2). The class given is biochemical. Summed up: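 GSK3-α protein preincubated with compound for 105 min, then Z-LYTE FRET peptide and ATP added for 1 h before protease development for 1 h. Phosphorylation taken from coumarin/fluorescein emission ratio; percent inhibition against uninhibited control and IC50 calculated from concentration-response curves.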

The test system of assay [1] is PBMCs. The assay can be described thus: LPS-induced TNFα/IL-8 release in PBMC cells. The assay is classed as cell-based. To be noted: Homo sapiens, LPS-stimulated PBMCs. Summed up:
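Human PBMCs from healthy donors, isolated by density gradient, were pretreated with compound for 2 h and then stimulated with 1 ng/mL LPS (E. coli 0111:B4) for 24 h at 37° C, 5% CO2. Supernatant IL-8 and TNFα were measured by sandwich ELISA, and IC50 was taken from the dose-response curve.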

Assay [2] concerns TNBS-induced colitis in mice. As to the kind of experiment: TNBS-induced colitis in mice. The class given is in vivo. Here is the method: Non-fasted, 10-12 week old, male BDF1 mice are dosed by oral gavage twice daily with either vehicle (5 mL/kg), reference item (Budesonide 2.5 mg/kg) or test compound (1 or 5 mg/kg) one day before (Day −1) stimulation of the inflammatory response by treatment with 2,4,6-trinitrobenzenesuiphonic acid (TNBS) (15 mg/mL in 50% ethanol/50% saline). On Day 0 of the study TNBS (200 μL) is administered intra-colonically via a plastic catheter followed by BID dosing of the vehicle, reference or test compound for 2 or 4 days. During the study animals are weighed every day and stool observations are made and recorded as a score, based on stool consistency. At the time of sacrifice on Day 2 (or Day 4) the large intestine is removed and the length and weight recorded. Sections of the colon are taken for either MPO analysis to determine neutrophil infiltration or for histopathology involving scoring to determine disease severity.

A further assay addresses c-Src (Homo sapiens (Human), UniProt P12931). As to the kind of experiment: c-Src enzyme inhibition (FRET, Z-LYTE). The class given is biochemical. Summed up: (§1)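 Z-LYTE FRET peptide assay with enzyme preincubated with compound for 2 h at RT, then 1 h kinase reaction and 1 h protease development. ATP solutions were 800 μM for c-Src and 60 μM for Syk. Inhibition was taken from the coumarin/fluorescein emission ratio, and IC50 from concentration-response curves.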

The target of a further assay is Syk (Homo sapiens (Human), UniProt P43405). As to the kind of experiment: Syk enzyme inhibition (FRET, Z-LYTE). The assay is classed as biochemical. A digest of the protocol:
as §1

The subject of assay [3] is PBMCs. The assay can be described thus: IL-2 and IFN gamma release in CD3/CD28 stimulated PBMC cells. The assay is classed as cell-based. Particulars: Homo sapiens. A digest of the protocol: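 They were cultured with compound for 3 days. IL-2 and IFN-γ in supernatants were quantified by sandwich ELISA, and IC50 was derived from the dose-response curve.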
The next assay relates to d-U937 cells. As to the kind of experiment: LPS-induced TNFα/IL-8 release in d-U937 cells. To be noted: Homo sapiens, dU937, LPS-stimulated d-U937 cells. The class given is cell-based. Here is the method:
U937 cells, a human monocytic cell line, are differentiated to macrophage-type cells by incubation with phorbol myristate acetate (PMA; 100 ng/mL) for 48 to 72 hr. Cells are pre-incubated with final concentrations of test compound for 2 hr and are then stimulated with 0.1 μg/mL of LPS (from E. Coli: O111:B4, Sigma) for 4 hr. The supernatant is collected for determination of TNFα and IL-8 concentrations by sandwich ELISA (Duo-set, R&D systems). The inhibition of TNFα production is calculated as a percentage of that achieved by 10 μg/mL of BIRB796 at each concentration of test compound by comparison against vehicle control. The relative 50% effective concentration (REC50) is determined from the resultant concentration-response curve. The inhibition of IL-8 production is calculated at each concentration of test compound by comparison with vehicle control. The 50% inhibitory concentration (IC50) is determined from the resultant concentration-response curve.

c-Src, sequence (P12931 whole entry, looked up): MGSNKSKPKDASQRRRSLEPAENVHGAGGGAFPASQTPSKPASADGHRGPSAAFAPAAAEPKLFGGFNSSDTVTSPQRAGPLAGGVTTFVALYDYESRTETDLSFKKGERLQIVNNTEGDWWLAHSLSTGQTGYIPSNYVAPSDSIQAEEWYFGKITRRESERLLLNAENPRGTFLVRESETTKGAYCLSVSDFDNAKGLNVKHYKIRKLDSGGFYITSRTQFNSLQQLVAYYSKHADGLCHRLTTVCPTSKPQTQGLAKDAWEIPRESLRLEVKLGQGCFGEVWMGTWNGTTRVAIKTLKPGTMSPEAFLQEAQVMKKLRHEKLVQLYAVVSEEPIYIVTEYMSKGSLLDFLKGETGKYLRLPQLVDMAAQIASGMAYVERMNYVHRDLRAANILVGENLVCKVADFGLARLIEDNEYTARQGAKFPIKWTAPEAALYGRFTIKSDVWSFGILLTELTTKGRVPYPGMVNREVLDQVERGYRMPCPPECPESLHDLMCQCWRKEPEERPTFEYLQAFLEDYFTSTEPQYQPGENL
GSK3α, sequence (P49840 whole entry): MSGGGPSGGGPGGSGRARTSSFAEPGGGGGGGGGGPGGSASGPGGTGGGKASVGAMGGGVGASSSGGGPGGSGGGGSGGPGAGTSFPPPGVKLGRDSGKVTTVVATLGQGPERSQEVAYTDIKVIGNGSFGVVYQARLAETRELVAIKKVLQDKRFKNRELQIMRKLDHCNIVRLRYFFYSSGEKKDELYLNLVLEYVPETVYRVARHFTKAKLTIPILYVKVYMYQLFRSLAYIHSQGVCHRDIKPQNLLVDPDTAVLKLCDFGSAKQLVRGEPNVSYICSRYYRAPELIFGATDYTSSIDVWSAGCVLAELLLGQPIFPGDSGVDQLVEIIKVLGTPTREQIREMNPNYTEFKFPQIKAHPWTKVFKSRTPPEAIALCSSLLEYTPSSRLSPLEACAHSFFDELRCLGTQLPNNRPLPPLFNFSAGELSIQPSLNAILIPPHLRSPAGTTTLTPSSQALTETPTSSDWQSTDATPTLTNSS

What is called IC50 is the concentration that gives 50% inhibition. `COCCOCCOCCOc1cc(Nc2nccc(Oc3ccc(NC(=O)Nc4cc(C(C)(C)C)nn4-c4cccc(CP(C)(C)=O)c4)c4ccccc34)n2)cc(OC)c1` [Example 60, 1-(3-(tert-Butyl)-1-(3-((dimethylphosphoryl)methyl)phenyl)-1H-pyrazol-5-yl)-3-(4-((2-((3-methoxy-5-(2-(2-(2-methoxyethoxy)ethoxy)ethoxy)phenyl)amino)pyrimidin-4-yl)oxy)-naphthalen-1-yl)urea]: the IC50 against GSK3α was 1100 nM; in the assay on PBMCs [1] (IL-8, read-out: IC50 Values for Inhibition of Cytokine Release, PBMCs IL-8) it was 0.9 nM; in the assay with PBMCs [1] (TNFα, read-out: IC50 Values for Inhibition of Cytokine Release, PBMCs TNFα), 0.6 nM; against c-Src it was 2 nM; against Syk, 8 nM; in the assay on PBMCs [3] (IFNγ, read-out: IC50 Values for Inhibition of Cytokine Release, PBMCs IFNγ), 1.9 nM. The IC50 in the assay with PBMCs [3] (IL-2, read-out: IC50 Values for Inhibition of Cytokine Release, PBMCs IL-2) was found to be 16 nM; with d-U937 cells (IL-8, read-out: IC50 Values for Inhibition of Cytokine Release, dU937 cells IL-8) it was 0.4 nM; in the assay with d-U937 cells (TNFα (REC50 relative to BIRB796 per method), read-out: IC50 Values for Inhibition of Cytokine Release, dU937 cells TNFα), 0.2 nM. Moreover, the “TNBS Ulcer grade” value in assay [2] (5 mg/kg oral, conducted over 2 days, vehicle 3.6 ± 0.3 (exp. 1), 4.4 ± 0.2 (exp. 2)) was determined as 3.6 ± 0.4. In addition, the “TNBS LP inflammation” value in assay [2] (5 mg/kg oral, conducted over 2 days, vehicle 3.9 ± 0.3 (exp. 1), 4.5 ± 0.2 (exp. 2)) is on record as 2.8 ± 0.4. In assay [2] (conducted over 2 days), the “activity in in vivo model of colonic inflammation (histopathology analysis)” value is reported as “significant activity”. The “inflammatory cell infiltrate in the reticular and laminar propria zone” value in assay [2] (dosed orally at 5 mg/kg) is reported as “marked reduction”. Also, in assay [2] (dosed orally at 5 mg/kg), the “ulcer grade and epithelial repair compared to the vehicle control” value is recorded as “marked improvements”.
